Measurements taken from publication PMC10538245, “Fragment merging approach for design, synthesis, and biological assessment of urea/acetyl hydrazide clubbed thienopyrimidine derivatives as GSK-3β inhibitors” (BMC Chemistry, 2023).

Legend:
SF-539 = assay: NCI 60-cell line one dose antiproliferative assay; assay type: cell-based; details: Homo sapiens; SF-539, CNS Cancer, 10 µM one dose; read-out: Percent inhibition (cell growth inhibition %)
Excerpt: (§1) The National Cancer Institute "NCI", NIH, Bethesda, Maryland, USA (www.dtp.nci.nih.gov) chose six of the final compounds for the Developmental Therapeutic Program (DTP), codes (5a, 5b, 5c, 5d, 6a, 6b). The NCI screening service will favor compounds with drug-like modes of action based on computer-aided design. Selection The criterion for screening is the possibility of the submitted compounds to provide diversity to the NCI small molecule chemical collection. This screen employs 60 different Leukemia, melanoma, and additional tumor cell lines of the human from brain, kidney, lung, ovary, colon, breast, and prostate cancers. All compounds were picked based on their NCI codes. NSC: D-820696/1, NSC: D-820697/1, NSC: D-820698/1, NSC: D-820699/1, NSC: D-820700/1, NSC: D-820701/1. The initial 10 µM one dose percent inhibition assay was performed on the entire NCI 60 cell panel to examine the different chemotypes of this work. The results are presented as a percentage of cell growth on each of the 60 NCI cell line panels for each of the investigated substances in Table 2.
(§2) The NCI cancer screening procedure includes a comparison of all substances to the sixty NCI cell line panel representing leukemia, NSCLC, cell lines from breast cancer, prostate cancer, melanoma, CNS cancer, renal cancer, ovarian cancer, and colon cancer at a single point of 10 uM. The results of the single-dose screen can be presented using a mean graph.

UACC-62 = assay: NCI 60-cell line one dose antiproliferative assay; assay type: cell-based; details: Homo sapiens; UACC-62, Melanoma, 10 µM one dose; read-out: Percent inhibition (cell growth inhibition %)
Excerpt: as §1, §2

UO-31 = assay: NCI 60-cell line one dose antiproliferative assay; assay type: cell-based; details: Homo sapiens; UO-31, Renal Cancer, 10 µM one dose; read-out: Percent inhibition (cell growth inhibition %)
Excerpt: as §1, §2

NCI-H522 = assay: NCI 60-cell line one dose antiproliferative assay; assay type: cell-based; details: Homo sapiens; NCI-H522, Non-Small Cell Lung Cancer, 10 µM one dose; read-out: Percent inhibition (cell growth inhibition %)
Excerpt: as §1, §2

EKVX = assay: NCI 60-cell line one dose antiproliferative assay; assay type: cell-based; details: Homo sapiens, Non-Small Cell Lung Cancer, 10 µM one dose, read-out: Percent inhibition (cell growth inhibition %)
Excerpt: as §1, §2

MDA-MB-435 = assay: NCI 60-cell line one dose antiproliferative assay; assay type: cell-based; details: Homo sapiens; MDA-MB-435, Melanoma, 10 µM one dose; read-out: Percent inhibition (cell growth inhibition %)
Excerpt: as §1, §2

K-562 = assay: NCI 60-cell line one dose antiproliferative assay; assay type: cell-based; details: Homo sapiens, K562; K-562, Leukemia, 10 µM one dose; read-out: Percent inhibition (cell growth inhibition %)
Excerpt: as §1, §2

SF-268 = assay: NCI 60-cell line one dose antiproliferative assay; assay type: cell-based; details: Homo sapiens; SF-268, CNS Cancer, 10 µM one dose; read-out: Percent inhibition (cell growth inhibition %)
Excerpt: as §1, §2

MDA-MB-231/ATCC = assay: NCI 60-cell line one dose antiproliferative assay; assay type: cell-based; details: Homo sapiens, Breast Cancer, 10 µM one dose, read-out: Percent inhibition (cell growth inhibition %)
Excerpt: as §1, §2

HCT-116 = assay: NCI 60-cell line one dose antiproliferative assay; assay type: cell-based; details: Homo sapiens; HCT-116, Colon Cancer, 10 µM one dose; read-out: Percent inhibition (cell growth inhibition %)
Excerpt: as §1, §2

CAKI-1 = assay: NCI 60-cell line one dose antiproliferative assay; assay type: cell-based; details: Homo sapiens; CAKI-1, Renal Cancer, 10 µM one dose; read-out: Percent inhibition (cell growth inhibition %)
Excerpt: as §1, §2

OVCAR-5 = assay: NCI 60-cell line one dose antiproliferative assay; assay type: cell-based; details: Homo sapiens; OVCAR-5, Ovarian Cancer, 10 µM one dose; read-out: Percent inhibition (cell growth inhibition %)
Excerpt: as §1, §2

SR = assay: NCI 60-cell line one dose antiproliferative assay; assay type: cell-based; details: Homo sapiens, Leukemia, 10 µM one dose, read-out: Percent inhibition (cell growth inhibition %)
Excerpt: as §1, §2

U251 = assay: NCI 60-cell line one dose antiproliferative assay; assay type: cell-based; details: Homo sapiens, U-251; U251, CNS Cancer, 10 µM one dose; read-out: Percent inhibition (cell growth inhibition %)
Excerpt: as §1, §2

A549/ ATCC = assay: NCI 60-cell line one dose antiproliferative assay; assay type: cell-based; details: Homo sapiens, Non-Small Cell Lung Cancer, 10 µM one dose, read-out: Percent inhibition (cell growth inhibition %)
Excerpt: as §1, §2

LOX IMVI = assay: NCI 60-cell line one dose antiproliferative assay; assay type: cell-based; details: Homo sapiens, Melanoma, 10 µM one dose, read-out: Percent inhibition (cell growth inhibition %)
Excerpt: as §1, §2

SNB-19 = assay: NCI 60-cell line one dose antiproliferative assay; assay type: cell-based; details: Homo sapiens; SNB-19, CNS Cancer, 10 µM one dose; read-out: Percent inhibition (cell growth inhibition %)
Excerpt: as §1, §2

786–0 = assay: NCI 60-cell line one dose antiproliferative assay; assay type: cell-based; details: Homo sapiens; 786–0, Renal Cancer, 10 µM one dose; read-out: Percent inhibition (cell growth inhibition %)
Excerpt: as §1, §2

MCF7 = assay: NCI 60-cell line one dose antiproliferative assay; assay type: cell-based; details: Homo sapiens; MCF7, Breast Cancer, 10 µM one dose; read-out: Percent inhibition (cell growth inhibition %)
Excerpt: as §1, §2

A498 = assay: NCI 60-cell line one dose antiproliferative assay; assay type: cell-based; details: Homo sapiens; A498, Renal Cancer, 10 µM one dose; read-out: Percent inhibition (cell growth inhibition %)
Excerpt: as §1, §2

HS 578 T = assay: NCI 60-cell line one dose antiproliferative assay; assay type: cell-based; details: Homo sapiens, Breast Cancer, 10 µM one dose, read-out: Percent inhibition (cell growth inhibition %)
Excerpt: as §1, §2

BT-549 = assay: NCI 60-cell line one dose antiproliferative assay; assay type: cell-based; details: Homo sapiens; BT-549, Breast Cancer, 10 µM one dose; read-out: Percent inhibition (cell growth inhibition %)
Excerpt: as §1, §2

MOLT-4 = assay: NCI 60-cell line one dose antiproliferative assay; assay type: cell-based; details: Homo sapiens; MOLT-4, Leukemia, 10 µM one dose; read-out: Percent inhibition (cell growth inhibition %)
Excerpt: as §1, §2

SNB-75 = assay: NCI 60-cell line one dose antiproliferative assay; assay type: cell-based; details: Homo sapiens; SNB-75, CNS Cancer, 10 µM one dose; read-out: Percent inhibition (cell growth inhibition %)
Excerpt: as §1, §2

IGROV1 = assay: NCI 60-cell line one dose antiproliferative assay; assay type: cell-based; details: Homo sapiens, IGROV-1; IGROV1, Ovarian Cancer, 10 µM one dose; read-out: Percent inhibition (cell growth inhibition %)
Excerpt: as §1, §2

SN12C = assay: NCI 60-cell line one dose antiproliferative assay; assay type: cell-based; details: Homo sapiens, Renal Cancer, 10 µM one dose, read-out: Percent inhibition (cell growth inhibition %)
Excerpt: as §1, §2

NCI-H23 = assay: NCI 60-cell line one dose antiproliferative assay; assay type: cell-based; details: Homo sapiens; NCI-H23, Non-Small Cell Lung Cancer, 10 µM one dose; read-out: Percent inhibition (cell growth inhibition %)
Excerpt: as §1, §2

GSK-3β = GSK-3β (Homo sapiens, UniProt P49841); assay: GSK-3β kinase inhibition, Z'-LYTE FRET assay (Thermo Fisher SelectScreen); assay type: biochemical; details: for inhibition at 100 µM: 100 μM single dose
RXF 393 = assay: NCI 60-cell line one dose antiproliferative assay; assay type: cell-based; details: Homo sapiens; RXF 393, Renal Cancer, 10 µM one dose; read-out: Percent inhibition (cell growth inhibition %)
Excerpt: as §1, §2

SW-620 = assay: NCI 60-cell line one dose antiproliferative assay; assay type: cell-based; details: Homo sapiens; SW-620, Colon Cancer, 10 µM one dose; read-out: Percent inhibition (cell growth inhibition %)
Excerpt: as §1, §2

SK-MEL-5 = assay: NCI 60-cell line one dose antiproliferative assay; assay type: cell-based; details: Homo sapiens; SK-MEL-5, Melanoma, 10 µM one dose; read-out: Percent inhibition (cell growth inhibition %)
Excerpt: as §1, §2

NCI-H460 = assay: NCI 60-cell line one dose antiproliferative assay; assay type: cell-based; details: Homo sapiens; NCI-H460, Non-Small Cell Lung Cancer, 10 µM one dose; read-out: Percent inhibition (cell growth inhibition %)
Excerpt: as §1, §2

MDA-MB-468 = assay: NCI 60-cell line one dose antiproliferative assay; assay type: cell-based; details: Homo sapiens; MDA-MB-468, Breast Cancer, 10 µM one dose; read-out: Percent inhibition (cell growth inhibition %)
Excerpt: as §1, §2

PC-3 = assay: NCI 60-cell line one dose antiproliferative assay; assay type: cell-based; details: Homo sapiens; PC-3, Prostate Cancer, 10 µM one dose; read-out: Percent inhibition (cell growth inhibition %)
Excerpt: as §1, §2

NCI-H226 = assay: NCI 60-cell line one dose antiproliferative assay; assay type: cell-based; details: Homo sapiens; NCI-H226, Non-Small Cell Lung Cancer, 10 µM one dose; read-out: Percent inhibition (cell growth inhibition %)
Excerpt: as §1, §2

NCI-H322M = assay: NCI 60-cell line one dose antiproliferative assay; assay type: cell-based; details: Homo sapiens, Non-Small Cell Lung Cancer, 10 µM one dose, read-out: Percent inhibition (cell growth inhibition %)
Excerpt: as §1, §2

T-47D = assay: NCI 60-cell line one dose antiproliferative assay; assay type: cell-based; details: Homo sapiens, T47D, Breast Cancer, 10 µM one dose, read-out: Percent inhibition (cell growth inhibition %)
Excerpt: as §1, §2

Sequence of GSK-3β (P49841 whole entry): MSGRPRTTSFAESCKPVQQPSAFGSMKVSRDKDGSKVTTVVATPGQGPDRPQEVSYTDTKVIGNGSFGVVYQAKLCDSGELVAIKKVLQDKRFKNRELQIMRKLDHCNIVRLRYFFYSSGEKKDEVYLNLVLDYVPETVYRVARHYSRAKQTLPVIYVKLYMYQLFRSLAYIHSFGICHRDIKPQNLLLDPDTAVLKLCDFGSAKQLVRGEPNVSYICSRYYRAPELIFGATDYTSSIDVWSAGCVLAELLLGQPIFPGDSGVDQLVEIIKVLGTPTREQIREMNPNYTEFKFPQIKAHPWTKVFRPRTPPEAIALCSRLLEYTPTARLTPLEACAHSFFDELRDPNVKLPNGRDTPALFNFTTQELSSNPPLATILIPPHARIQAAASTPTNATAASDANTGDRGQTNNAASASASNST

SMILES	melting point	inhibition at 10 µM (UACC-62)	inhibition at 10 µM (UO-31)	inhibition at 10 µM (NCI-H522)	inhibition at 10 µM (SF-268)	inhibition at 10 µM (CAKI-1)	inhibition at 10 µM (OVCAR-5)	inhibition at 10 µM (A549/ ATCC)	inhibition at 10 µM (LOX IMVI)	inhibition at 10 µM (SNB-19)	inhibition at 10 µM (MCF7)	inhibition at 10 µM (A498)	inhibition at 10 µM (HS 578 T)	inhibition at 10 µM (MOLT-4)	inhibition at 10 µM (SNB-75)	inhibition at 10 µM (IGROV1)	inhibition at 100 µM (GSK-3β)	also measured
O=C(COc1ncnc2sc3c(c12)CCCC3)NN=Cc1ccc(Br)cc1 [5c, N'-(4-Bromobenzylidene)-2-((5,6,7,8-tetrahydrobenzo[4,5]thieno[2,3-d]pyrimidin-4-yl)oxy)acetohydrazide]	290 to 292 °C	6.58%	16.6%	10.3%	5.08%	16.7%	10%	1.87%	3.68%	5.53%	8.67%	21.3%	7.31%	9.38%	13.6%	2.52%	43%	inhibition at 10 µM (SF-539): 1.02%; inhibition at 10 µM (EKVX): 3.66%; inhibition at 10 µM (MDA-MB-435): 0.85%; inhibition at 10 µM (K-562): 13.5%; inhibition at 10 µM (MDA-MB-231/ATCC): 11.2%; inhibition at 10 µM (HCT-116): 3.24%; inhibition at 10 µM (SR): 8.29%; inhibition at 10 µM (U251): 6.99%; inhibition at 10 µM (786–0): 5.22%; inhibition at 10 µM (BT-549): 2.58%; inhibition at 10 µM (SN12C): 3.09%; inhibition at 10 µM (NCI-H23): 0.25%
CN(C)c1ccc(C=NNC(=O)COc2ncnc3sc4c(c23)CCCC4)cc1 [5d, N'-(4-(Dimethylamino)benzylidene)-2-((5,6,7,8-tetrahydrobenzo [4,5]thieno[2,3-d]pyrimidin-4-yl)oxy) acetohydrazide]	285 °C	5.34%	24%	4.74%	1.44%	5.26%	8.97%	1.15%	2.93%	3.31%	7.82%	48.4%	5.71%	0.81%	18.8%	14.4%	50%	inhibition at 10 µM (RXF 393): 7.97%; inhibition at 10 µM (SW-620): 2.39%; inhibition at 10 µM (SK-MEL-5): 0.27%; inhibition at 10 µM (NCI-H460): 1.04%; inhibition at 10 µM (MDA-MB-468): 15.8%; inhibition at 10 µM (PC-3): 3.93%; inhibition at 10 µM (NCI-H226): 8.81%; inhibition at 10 µM (NCI-H322M): 3.69%; inhibition at 10 µM (T-47D): 0.95%; inhibition at 10 µM (GSK-3β; 10 μM): 5%
